Assay results taken from US9181318B2, “Method of screening a drug such as insulin secretagogue” (JNC Corporation, priority 2009, dated 2015).

System: insulin-GLase-expressed MIN6 cells (mouse pancreatic β cells)
Assay: Secretion of insulin-GLase fusion protein from transformed MIN6 cells, luminescence (luciferase) activity in the medium
Format: cell-based
Conditions: glibenclamide in low glucose-modified KRHB buffer; aliquots taken 0-30 minutes; control 2 mM glucose; FIG. 9
Protocol: Mouse pancreatic β cells, MIN6 strains, were cultured in high glucose DMEM (manufactured by Sigma) supplemented with 10% fetal calf serum (manufactured by Invitrogen) and 50 μM of 2-mercaptoethanol. The expression vector obtained in EXAMPLE 1-1 was transfected to the MIN6 cell line using LipofectAMINE 2000 (manufactured by Invitrogen). After the transfection, the cells were incubated in a CO2 incubator at 37° C. for 24 hours. The secretion expression of the fusion Gaussia luciferase protein in the transformant was confirmed by measuring the luminescence activity with a Luminometer AB2200 (manufactured by Atto Corporation) using coelenterazine as a luminescent substrate, in accordance with the method described in Biochem. Biophys. Res. Commun., 365, 96-101 (2007). As a result, the luminescence activity in the cultured medium by high glucose (20 mM glucose) stimulation to the transformed MIN6 cells increased by about 7 times as compared to that prior to the treatment (FIG. 1). […] Glibenclamide, which is a sulfonylurea type hypoglycemic agent, promotes the secretion of endogenous insulin to lower blood glucose levels. This promotion of insulin secretion was examined using the insulin-GLase-expressed MIN6 cells to assess the effect. […]

Structure (SMILES): COc1ccc(Cl)cc1C(=O)NCCc1ccc(S(=O)(=O)NC(=O)NC2CCCCC2)cc1 [glibenclamide, Glibenclamide]
- insulin secretion (luciferase activity of secreted insulin-GLase): promoted
